From ChEMBL document CHEMBL4229333, “Effects of rigidity on the selectivity of protein kinase inhibitors” (Eur J Med Chem, 2018)

Tests used:
[1] = molecular target: Dual specificity tyrosine-phosphorylation-regulated kinase 4 (Homo sapiens) (UniProt Q9NR20); test: Inhibition of DYRK4 (unknown origin) at 1 uM by mobility shift microfluidics platform based assay relative to control
[2] = molecular target: Death-associated protein kinase 3 (Homo sapiens) (UniProt O43293); test: Inhibition of DAPK3 (unknown origin) at 1 uM by mobility shift microfluidics platform based assay relative to control
[3] = molecular target: Serine/threonine-protein kinase PAK 1 (Homo sapiens) (UniProt Q13153); test: Inhibition of PAK1 (unknown origin) at 1 uM by mobility shift microfluidics platform based assay relative to control
[4] = molecular target: Tyrosine-protein kinase FRK (Homo sapiens) (UniProt P42685); test: Inhibition of PTK5 (unknown origin) at 1 uM by mobility shift microfluidics platform based assay relative to control
[5] = molecular target: Serine/threonine-protein kinase B-raf (Homo sapiens) (UniProt P15056); test: Inhibition of BRAF (unknown origin) at 1 uM by mobility shift microfluidics platform based assay relative to control
[6] = molecular target: Serine/threonine-protein kinase MRCK beta (Homo sapiens) (UniProt Q9Y5S2); test: Inhibition of MRCK-beta (unknown origin) at 1 uM by mobility shift microfluidics platform based assay relative to control
[7] = molecular target: Protein kinase C iota type (Homo sapiens) (UniProt P41743); test: Inhibition of PKC-iota (unknown origin) at 1 uM by mobility shift microfluidics platform based assay relative to control
[8] = molecular target: Cyclin-T1/Cyclin-dependent-like kinase 5 (Homo sapiens) (UniProt Q00535+O60563); test: Inhibition of CDK5/cyclin T1 (unknown origin) at 1 uM by mobility shift microfluidics platform based assay relative to control; assay type: protein-complex assay
[9] = molecular target: Inhibitor of nuclear factor kappa-B kinase subunit alpha (Homo sapiens) (UniProt O15111); test: Inhibition of IKK-alpha (unknown origin) at 1 uM by mobility shift microfluidics platform based assay relative to control
[10] = molecular target: Testis-specific serine/threonine-protein kinase 1 (Homo sapiens) (UniProt Q9BXA7); test: Inhibition of TSSK1 (unknown origin) at 1 uM by mobility shift microfluidics platform based assay relative to control
[11] = molecular target: Ribosomal protein S6 kinase alpha-6 (Homo sapiens) (UniProt Q9UK32); test: Inhibition of RSK4 (unknown origin) at 1 uM by mobility shift microfluidics platform based assay relative to control
Chain of Ribosomal protein S6 kinase alpha-6 (Homo sapiens) (Q9UK32 whole entry): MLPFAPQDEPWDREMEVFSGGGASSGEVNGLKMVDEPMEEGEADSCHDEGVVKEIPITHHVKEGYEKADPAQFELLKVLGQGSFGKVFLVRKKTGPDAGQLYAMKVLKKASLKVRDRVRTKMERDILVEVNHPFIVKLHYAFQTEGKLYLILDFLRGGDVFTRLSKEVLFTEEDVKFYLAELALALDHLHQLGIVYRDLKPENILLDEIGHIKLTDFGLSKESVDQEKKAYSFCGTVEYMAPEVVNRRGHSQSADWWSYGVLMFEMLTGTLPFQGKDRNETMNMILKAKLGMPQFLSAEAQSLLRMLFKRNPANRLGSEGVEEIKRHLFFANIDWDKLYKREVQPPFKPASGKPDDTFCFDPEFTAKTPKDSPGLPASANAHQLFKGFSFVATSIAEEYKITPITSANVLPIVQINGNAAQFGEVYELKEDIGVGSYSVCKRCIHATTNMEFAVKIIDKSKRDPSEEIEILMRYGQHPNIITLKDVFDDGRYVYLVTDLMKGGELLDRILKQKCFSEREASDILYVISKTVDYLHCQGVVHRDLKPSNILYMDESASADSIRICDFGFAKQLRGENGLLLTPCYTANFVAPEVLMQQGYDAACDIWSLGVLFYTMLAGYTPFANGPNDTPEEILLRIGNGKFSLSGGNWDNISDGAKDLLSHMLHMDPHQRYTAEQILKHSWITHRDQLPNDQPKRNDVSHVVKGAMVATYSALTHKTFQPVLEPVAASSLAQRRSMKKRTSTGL

[12] = molecular target: Tyrosine-protein kinase JAK3 (Homo sapiens) (UniProt P52333); test: Inhibition of JAK3 (unknown origin) at 1 uM by mobility shift microfluidics platform based assay relative to control
Chain of Tyrosine-protein kinase JAK3 (Homo sapiens) (P52333 whole entry): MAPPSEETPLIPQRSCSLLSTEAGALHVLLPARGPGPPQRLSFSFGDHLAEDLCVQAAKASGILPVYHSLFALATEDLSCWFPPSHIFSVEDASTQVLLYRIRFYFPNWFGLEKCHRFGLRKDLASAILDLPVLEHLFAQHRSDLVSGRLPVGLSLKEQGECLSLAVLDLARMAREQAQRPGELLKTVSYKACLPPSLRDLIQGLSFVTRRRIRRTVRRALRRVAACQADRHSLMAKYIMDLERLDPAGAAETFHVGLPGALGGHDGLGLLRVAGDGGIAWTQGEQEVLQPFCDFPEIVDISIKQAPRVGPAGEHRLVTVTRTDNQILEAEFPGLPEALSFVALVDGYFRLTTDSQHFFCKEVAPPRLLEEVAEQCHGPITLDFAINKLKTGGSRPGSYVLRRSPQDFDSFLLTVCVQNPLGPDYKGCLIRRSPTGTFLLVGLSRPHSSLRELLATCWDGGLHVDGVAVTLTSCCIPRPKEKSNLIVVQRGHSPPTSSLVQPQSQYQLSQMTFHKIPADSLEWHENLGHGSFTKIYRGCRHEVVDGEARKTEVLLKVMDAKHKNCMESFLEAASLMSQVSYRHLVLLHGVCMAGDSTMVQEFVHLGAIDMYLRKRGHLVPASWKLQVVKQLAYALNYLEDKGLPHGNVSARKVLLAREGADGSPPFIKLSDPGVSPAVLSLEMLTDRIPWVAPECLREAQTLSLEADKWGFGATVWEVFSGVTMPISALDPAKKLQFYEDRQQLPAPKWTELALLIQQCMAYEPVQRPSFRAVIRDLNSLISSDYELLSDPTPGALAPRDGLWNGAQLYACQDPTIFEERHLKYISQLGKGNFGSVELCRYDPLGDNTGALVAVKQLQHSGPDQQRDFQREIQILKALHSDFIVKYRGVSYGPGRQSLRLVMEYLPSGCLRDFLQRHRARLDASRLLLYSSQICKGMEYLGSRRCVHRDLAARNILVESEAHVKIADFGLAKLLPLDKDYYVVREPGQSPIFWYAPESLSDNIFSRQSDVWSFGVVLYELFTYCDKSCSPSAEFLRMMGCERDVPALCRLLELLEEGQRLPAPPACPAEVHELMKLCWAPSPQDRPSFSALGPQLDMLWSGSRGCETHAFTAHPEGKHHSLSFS

[13] = molecular target: Mast/stem cell growth factor receptor Kit (Homo sapiens) (UniProt P10721); test: Inhibition of KIT (unknown origin) at 1 uM by mobility shift microfluidics platform based assay relative to control
[14] = molecular target: Protein kinase C theta type (Homo sapiens) (UniProt Q04759); test: Inhibition of PKC-theta (unknown origin) at 1 uM by mobility shift microfluidics platform based assay relative to control
[15] = molecular target: Fibroblast growth factor receptor 4 (Homo sapiens) (UniProt P22455); test: Inhibition of FGFR4 (unknown origin) at 1 uM by mobility shift microfluidics platform based assay relative to control
[16] = molecular target: Calcium/calmodulin-dependent protein kinase type II subunit delta (Homo sapiens) (UniProt Q13557); test: Inhibition of CAMK2D (unknown origin) at 1 uM by mobility shift microfluidics platform based assay relative to control
[17] = molecular target: Serine/threonine-protein kinase 38-like (Homo sapiens) (UniProt Q9Y2H1); test: Inhibition of NDR2 (unknown origin) at 1 uM by mobility shift microfluidics platform based assay relative to control
[18] = molecular target: Angiopoietin-1 receptor (Homo sapiens) (UniProt Q02763); test: Inhibition of TIE2 (unknown origin) at 1 uM by mobility shift microfluidics platform based assay relative to control
Homo sapiens = species: Homo sapiens; test: Inhibition of CDK/cyclin D3 (unknown origin) at 1 uM by mobility shift microfluidics platform based assay relative to control
[19] = molecular target: Serine/threonine-protein kinase N1 (Homo sapiens) (UniProt Q16512); test: Inhibition of PKN1 (unknown origin) at 1 uM by mobility shift microfluidics platform based assay relative to control
[20] = molecular target: Serine/threonine-protein kinase SIK2 (Homo sapiens) (UniProt Q9H0K1); test: Inhibition of SNF1LK2 (unknown origin) at 1 uM by mobility shift microfluidics platform based assay relative to control
[21] = molecular target: MAP/microtubule affinity-regulating kinase 4 (Homo sapiens) (UniProt Q96L34); test: Inhibition of MARK4 (unknown origin) at 1 uM by mobility shift microfluidics platform based assay relative to control
[22] = molecular target: Homeodomain-interacting protein kinase 4 (Homo sapiens) (UniProt Q8NE63); test: Inhibition of HIPK4 (unknown origin) at 1 uM by mobility shift microfluidics platform based assay relative to control
[23] = molecular target: Aurora kinase C (Homo sapiens) (UniProt Q9UQB9); test: Inhibition of AURORA-C (unknown origin) at 1 uM by mobility shift microfluidics platform based assay relative to control
[24] = molecular target: Eukaryotic translation initiation factor 2-alpha kinase 3 (Homo sapiens) (UniProt Q9NZJ5); test: Inhibition of PERK (unknown origin) at 1 uM by mobility shift microfluidics platform based assay relative to control
[25] = molecular target: Activated CDC42 kinase 1 (Homo sapiens) (UniProt Q07912); test: Inhibition of TNK2 (unknown origin) at 1 uM by mobility shift microfluidics platform based assay relative to control
Chain of Activated CDC42 kinase 1 (Homo sapiens) (Q07912 whole entry, looked up): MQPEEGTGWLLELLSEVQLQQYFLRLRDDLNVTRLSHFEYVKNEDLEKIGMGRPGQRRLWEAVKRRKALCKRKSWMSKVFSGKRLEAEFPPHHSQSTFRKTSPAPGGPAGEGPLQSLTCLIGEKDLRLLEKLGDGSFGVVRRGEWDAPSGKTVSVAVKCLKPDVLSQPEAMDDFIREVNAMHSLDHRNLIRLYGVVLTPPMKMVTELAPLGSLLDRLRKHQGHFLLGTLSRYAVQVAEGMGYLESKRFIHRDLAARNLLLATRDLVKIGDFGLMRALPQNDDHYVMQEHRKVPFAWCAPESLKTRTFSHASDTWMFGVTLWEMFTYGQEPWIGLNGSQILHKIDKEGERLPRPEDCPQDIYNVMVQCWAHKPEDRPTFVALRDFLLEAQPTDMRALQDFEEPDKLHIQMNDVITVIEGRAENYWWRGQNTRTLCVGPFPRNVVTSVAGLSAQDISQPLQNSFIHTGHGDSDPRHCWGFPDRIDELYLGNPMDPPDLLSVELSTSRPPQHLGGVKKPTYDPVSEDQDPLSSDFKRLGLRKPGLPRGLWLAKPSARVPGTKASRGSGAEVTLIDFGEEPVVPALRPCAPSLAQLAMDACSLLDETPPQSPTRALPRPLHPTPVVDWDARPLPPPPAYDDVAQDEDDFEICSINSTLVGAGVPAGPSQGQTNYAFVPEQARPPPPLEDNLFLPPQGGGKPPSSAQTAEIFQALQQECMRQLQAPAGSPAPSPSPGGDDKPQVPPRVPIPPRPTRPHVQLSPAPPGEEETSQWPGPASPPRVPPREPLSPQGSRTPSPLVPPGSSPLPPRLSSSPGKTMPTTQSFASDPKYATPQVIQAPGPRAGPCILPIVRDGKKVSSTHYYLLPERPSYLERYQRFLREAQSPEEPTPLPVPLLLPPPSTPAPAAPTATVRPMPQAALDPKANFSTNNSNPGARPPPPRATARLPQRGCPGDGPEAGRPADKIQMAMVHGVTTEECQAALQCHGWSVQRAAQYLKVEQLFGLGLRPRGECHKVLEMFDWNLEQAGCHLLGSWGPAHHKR

[26] = molecular target: Serine/threonine-protein kinase 24 (Homo sapiens) (UniProt Q9Y6E0); test: Inhibition of MST3 (unknown origin) at 1 uM by mobility shift microfluidics platform based assay relative to control
[27] = molecular target: AMP-activated protein kinase (AMPK) alpha-1/beta-1/gamma-1 (Homo sapiens) (UniProt P54619+Q9Y478+Q13131); test: Inhibition of AMP-A1B1G1 (unknown origin) at 1 uM by mobility shift microfluidics platform based assay relative to control; assay type: protein-complex assay
[28] = molecular target: Macrophage colony-stimulating factor 1 receptor (Homo sapiens) (UniProt P07333); test: Inhibition of FMS (unknown origin) at 1 uM by mobility shift microfluidics platform based assay relative to control
Chain of Macrophage colony-stimulating factor 1 receptor (Homo sapiens) (P07333 whole entry): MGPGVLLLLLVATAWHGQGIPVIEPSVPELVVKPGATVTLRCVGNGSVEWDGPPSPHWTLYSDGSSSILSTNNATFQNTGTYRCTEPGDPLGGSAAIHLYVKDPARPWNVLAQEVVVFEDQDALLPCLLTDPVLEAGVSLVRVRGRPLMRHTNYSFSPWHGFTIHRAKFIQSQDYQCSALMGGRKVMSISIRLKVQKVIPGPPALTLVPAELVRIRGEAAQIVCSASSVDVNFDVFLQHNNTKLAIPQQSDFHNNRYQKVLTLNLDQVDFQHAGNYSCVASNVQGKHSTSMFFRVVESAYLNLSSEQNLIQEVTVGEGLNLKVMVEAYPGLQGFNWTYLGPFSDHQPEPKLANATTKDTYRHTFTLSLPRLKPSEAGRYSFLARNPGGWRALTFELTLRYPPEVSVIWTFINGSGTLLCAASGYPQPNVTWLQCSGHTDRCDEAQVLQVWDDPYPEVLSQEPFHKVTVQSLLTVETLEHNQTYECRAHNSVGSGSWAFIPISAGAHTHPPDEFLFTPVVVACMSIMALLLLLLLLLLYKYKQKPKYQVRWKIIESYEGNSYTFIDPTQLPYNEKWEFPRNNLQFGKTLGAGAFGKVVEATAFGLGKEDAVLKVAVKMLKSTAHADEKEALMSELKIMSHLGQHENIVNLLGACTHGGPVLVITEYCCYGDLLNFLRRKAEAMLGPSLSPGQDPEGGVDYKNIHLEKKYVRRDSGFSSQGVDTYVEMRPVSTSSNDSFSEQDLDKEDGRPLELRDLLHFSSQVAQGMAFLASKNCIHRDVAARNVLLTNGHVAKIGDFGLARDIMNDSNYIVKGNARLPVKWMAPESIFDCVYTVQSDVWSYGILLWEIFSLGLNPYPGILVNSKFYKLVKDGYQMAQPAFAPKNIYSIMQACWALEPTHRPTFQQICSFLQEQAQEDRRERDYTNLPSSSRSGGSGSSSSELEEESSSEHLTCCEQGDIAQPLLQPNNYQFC

[29] = molecular target: Tyrosine-protein kinase ZAP-70 (Homo sapiens) (UniProt P43403); test: Inhibition of ZAP70 (unknown origin) at 1 uM by mobility shift microfluidics platform based assay relative to control
[30] = molecular target: Protein-tyrosine kinase 6 (Homo sapiens) (UniProt Q13882); test: Inhibition of BRK (unknown origin) at 1 uM by mobility shift microfluidics platform based assay relative to control
[31] = molecular target: cAMP-dependent protein kinase catalytic subunit alpha (Homo sapiens) (UniProt P17612); test: Inhibition of PRKACA (unknown origin) at 1 uM by mobility shift microfluidics platform based assay relative to control
[32] = molecular target: Ribosomal protein S6 kinase alpha-2 (Homo sapiens) (UniProt Q15349); test: Inhibition of RSK3 (unknown origin) at 1 uM by mobility shift microfluidics platform based assay relative to control
Chain of Ribosomal protein S6 kinase alpha-2 (Homo sapiens) (Q15349 whole entry): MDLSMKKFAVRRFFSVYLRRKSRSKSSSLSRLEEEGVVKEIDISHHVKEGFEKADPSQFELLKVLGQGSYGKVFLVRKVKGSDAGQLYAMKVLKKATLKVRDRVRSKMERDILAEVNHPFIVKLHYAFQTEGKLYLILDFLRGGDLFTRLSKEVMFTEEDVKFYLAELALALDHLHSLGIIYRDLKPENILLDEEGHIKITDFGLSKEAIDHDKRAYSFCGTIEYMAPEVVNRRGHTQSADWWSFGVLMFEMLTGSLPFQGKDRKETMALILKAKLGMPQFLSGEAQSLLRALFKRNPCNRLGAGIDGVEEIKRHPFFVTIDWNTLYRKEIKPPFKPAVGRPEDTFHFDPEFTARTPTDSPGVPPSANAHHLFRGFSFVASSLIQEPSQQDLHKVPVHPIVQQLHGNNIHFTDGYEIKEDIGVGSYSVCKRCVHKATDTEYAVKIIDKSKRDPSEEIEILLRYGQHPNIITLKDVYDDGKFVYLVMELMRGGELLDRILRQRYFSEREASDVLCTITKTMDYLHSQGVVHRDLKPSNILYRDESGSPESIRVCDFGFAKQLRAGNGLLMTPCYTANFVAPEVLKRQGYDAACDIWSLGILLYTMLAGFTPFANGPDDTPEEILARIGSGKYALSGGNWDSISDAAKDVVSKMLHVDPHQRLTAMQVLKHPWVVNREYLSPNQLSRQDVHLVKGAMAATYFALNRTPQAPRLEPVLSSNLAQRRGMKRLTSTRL

[33] = molecular target: Glycogen synthase kinase-3 beta (Homo sapiens) (UniProt P49841); test: Inhibition of GSK-3-beta (unknown origin) at 1 uM by mobility shift microfluidics platform based assay relative to control
Chain of Glycogen synthase kinase-3 beta (Homo sapiens) (P49841 whole entry, looked up): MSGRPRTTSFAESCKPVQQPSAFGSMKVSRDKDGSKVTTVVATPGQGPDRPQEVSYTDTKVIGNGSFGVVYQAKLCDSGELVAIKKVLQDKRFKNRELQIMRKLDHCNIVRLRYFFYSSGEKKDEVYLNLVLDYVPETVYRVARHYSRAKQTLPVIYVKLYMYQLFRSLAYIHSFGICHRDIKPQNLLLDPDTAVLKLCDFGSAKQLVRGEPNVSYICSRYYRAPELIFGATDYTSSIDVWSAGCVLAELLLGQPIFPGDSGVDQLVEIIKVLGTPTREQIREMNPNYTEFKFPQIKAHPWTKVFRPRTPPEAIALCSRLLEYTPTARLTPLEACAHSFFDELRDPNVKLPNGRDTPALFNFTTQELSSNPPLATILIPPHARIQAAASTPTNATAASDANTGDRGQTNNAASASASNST

SMILES | inhibition [1] [%] | inhibition [2] [%] | inhibition [3] [%] | inhibition [4] [%] | inhibition [5] [%] | inhibition [6] [%] | inhibition [7] [%] | inhibition [8] [%] | inhibition [9] [%] | inhibition [10] [%] | inhibition [11] [%] | inhibition [12] [%] | inhibition [13] [%] | inhibition [14] [%] | inhibition [15] [%] | inhibition [16] [%] | inhibition [17] [%] | inhibition [18] [%] | inhibition (Homo sapiens) [%] | inhibition [19] [%] | also measured
CC(C)n1nc(C#Cc2cccc(NC(=O)c3cccc(C(F)(F)F)c3)c2)c2c(N)ncnc21 | -1 | 11 | 0 | 95 | 101 | -1 | -3 | 5 | 26 | 0 | 2 | 30 | 98 | 0 | 89 | -1 | 1 | 96 | 8 | -2 | inhibition [20]: 7%; inhibition [21]: -4%; inhibition [22]: 29%; inhibition [23]: 33%; inhibition [24]: 29%; inhibition [25]: 13%; inhibition [26]: 0%; inhibition [27]: 2%; inhibition [28]: 99%; inhibition [29]: 3%; inhibition [30]: 97%; inhibition [31]: 2%; inhibition [32]: 10%; inhibition [33]: 19%
CC(C)n1nc(C#Cc2cccc3cc(-c4cccc(C(F)(F)F)c4)ncc23)c2c(N)ncnc21 | -7 | 11 | -1 | 18 | 92 | 1 | 2 | -2 | -3 | -1 | 0 | 10 | 97 | -2 | 62 | 0 | -1 | 61 | 1 | 6 | inhibition [20]: 10%; inhibition [21]: -1%; inhibition [22]: 9%; inhibition [23]: -2%; inhibition [24]: 0%; inhibition [25]: 3%; inhibition [26]: 3%; inhibition [27]: 0%; inhibition [28]: 87%; inhibition [29]: 4%; inhibition [30]: 86%; inhibition [31]: 4%; inhibition [32]: 2%; inhibition [33]: 3%
